This is an account of results in patent US10550100B2, “5-[3-[piperzin-1-yl]-3-oxo-propyl]-imidazolidine-2,4-dione derivatives as ADAMTS 4 and 5 inhibitors for treating E.G. osteoarthritis” (GALAPAGOS NV, priority 2016, dated 2020).

Like-named read-outs stand apart in the source and are kept apart here. A value given as a limit tells only on which side of the number the result lay.

Common to all, as to assay type: biochemical
The target in assay [1] is human ADAMTS6 (Homo sapiens (Human), UniProt Q9UKP5). Kind of assay: hADAMTS-6 520 MMP FRET substrate XII cleavage assay. The conditions noted are these: 37° C. for 2 h, read-out: hADAMTS-6 potency IC50. The text has this: The IC50 value for test compounds can be determined in a fluorescent based protease assay.
The basis for the assay is the cleavage of the substrate 520 MMP FRET substrate XII by human ADAMTS6.
The substrate contains sequence Arg-Pro-Lys-Pro-Tyr-Ala-Nva-Trp-Met-Lys (SEQ ID NO: 7) with attached a fluorescent probe and a quencher. Without ADAMTS6, the emission of the probe is quenched. If the substrate is cleaved by ADAMTS6, the emission of the probe is not quenched anymore. Inhibition of ADAMTS6 activity, will result in a decrease of the signal.
To perform the assay, 4 μL of a dilution series of compound in water, starting from 20 μM highest concentration, 1/5 dilution, is added to the wells. 2 ng ADAMTS6 enzyme is diluted in 25 mM Tris pH8.0, 0.05% CHAPS, 2.5 mM CaCl2 in a total volume of 26 μL (final concentration 0.73 nM). The reaction is started by addition of 10 μL of 1 μM 520 MMP FRET Substrate XII (final concentration, diluted in same buffer as described above) and the mixture is incubated at 37° C. for 2 h. […] After this incubation, cleavage of the substrate is measured using the Envision (Perkin Elmer, exc485/em530).

The target of assay [2] is human ADAMTS-5 (Homo sapiens (Human), UniProt Q9UNA0). Description: hADAMTS-5 TBIS-1 cleavage assay, Protocol 3. The conditions noted are these: Protocol 3, TBIS-1 substrate, 90 min at 37° C.; read-out: hADAMTS-5 potency IC50. How it is done:
The reaction is initiated by adding to the assay plate TBIS-1 (10 μL, 4.5 μM, Anaspec) in the same buffer.
Finally, the fluorescence is read on the Envision (Perkin Elmer) after an incubation of 90 min at 37° C. (Excitation 485 nm, emission 530).

The target of assay [3] is human TACE (Homo sapiens (Human), UniProt P78536). Kind of assay: hTACE 5FAM-[…]-5TAMRA cleavage assay. The conditions noted are these: 75 min at room temperature, read-out: hTACE potency IC50. The method, then: Finally, the fluorescence is read on the Envision (Perkin Elmer) after an incubation of 75 min at room temperature (Excitation 485 nm, Emission 530).
Chain of human TACE (P78536 215-671): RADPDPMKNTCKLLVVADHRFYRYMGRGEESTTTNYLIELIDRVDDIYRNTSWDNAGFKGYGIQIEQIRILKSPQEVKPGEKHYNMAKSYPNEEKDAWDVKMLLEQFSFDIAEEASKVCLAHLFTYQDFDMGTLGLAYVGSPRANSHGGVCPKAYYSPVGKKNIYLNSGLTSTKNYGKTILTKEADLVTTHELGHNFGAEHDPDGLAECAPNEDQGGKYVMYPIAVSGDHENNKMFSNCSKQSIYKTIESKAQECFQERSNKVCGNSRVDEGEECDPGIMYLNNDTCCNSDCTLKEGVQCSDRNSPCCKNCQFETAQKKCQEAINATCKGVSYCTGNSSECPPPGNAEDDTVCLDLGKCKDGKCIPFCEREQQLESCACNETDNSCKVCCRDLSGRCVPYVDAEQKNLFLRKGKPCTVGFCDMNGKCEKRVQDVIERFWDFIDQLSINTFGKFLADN

Chain of human ADAMTS6 (Q9UKP5 other isoform, or with tags, fused parts or gaps): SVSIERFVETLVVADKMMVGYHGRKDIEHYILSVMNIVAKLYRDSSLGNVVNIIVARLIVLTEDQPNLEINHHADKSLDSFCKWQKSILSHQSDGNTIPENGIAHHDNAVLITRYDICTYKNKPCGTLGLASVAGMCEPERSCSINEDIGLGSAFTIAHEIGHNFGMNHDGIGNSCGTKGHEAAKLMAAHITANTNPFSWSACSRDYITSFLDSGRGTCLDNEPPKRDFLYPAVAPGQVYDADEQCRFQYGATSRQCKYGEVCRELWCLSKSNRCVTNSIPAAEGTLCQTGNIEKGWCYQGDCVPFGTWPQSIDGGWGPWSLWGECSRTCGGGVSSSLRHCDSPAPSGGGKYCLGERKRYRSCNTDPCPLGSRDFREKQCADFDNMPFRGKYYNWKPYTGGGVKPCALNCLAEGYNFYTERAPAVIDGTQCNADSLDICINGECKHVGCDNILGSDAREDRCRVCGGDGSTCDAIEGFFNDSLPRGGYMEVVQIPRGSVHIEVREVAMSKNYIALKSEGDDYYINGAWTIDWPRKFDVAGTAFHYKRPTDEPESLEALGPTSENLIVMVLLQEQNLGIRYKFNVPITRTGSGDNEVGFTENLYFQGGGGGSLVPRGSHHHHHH
Chain of human ADAMTS-5 (Q9UNA0 262-930): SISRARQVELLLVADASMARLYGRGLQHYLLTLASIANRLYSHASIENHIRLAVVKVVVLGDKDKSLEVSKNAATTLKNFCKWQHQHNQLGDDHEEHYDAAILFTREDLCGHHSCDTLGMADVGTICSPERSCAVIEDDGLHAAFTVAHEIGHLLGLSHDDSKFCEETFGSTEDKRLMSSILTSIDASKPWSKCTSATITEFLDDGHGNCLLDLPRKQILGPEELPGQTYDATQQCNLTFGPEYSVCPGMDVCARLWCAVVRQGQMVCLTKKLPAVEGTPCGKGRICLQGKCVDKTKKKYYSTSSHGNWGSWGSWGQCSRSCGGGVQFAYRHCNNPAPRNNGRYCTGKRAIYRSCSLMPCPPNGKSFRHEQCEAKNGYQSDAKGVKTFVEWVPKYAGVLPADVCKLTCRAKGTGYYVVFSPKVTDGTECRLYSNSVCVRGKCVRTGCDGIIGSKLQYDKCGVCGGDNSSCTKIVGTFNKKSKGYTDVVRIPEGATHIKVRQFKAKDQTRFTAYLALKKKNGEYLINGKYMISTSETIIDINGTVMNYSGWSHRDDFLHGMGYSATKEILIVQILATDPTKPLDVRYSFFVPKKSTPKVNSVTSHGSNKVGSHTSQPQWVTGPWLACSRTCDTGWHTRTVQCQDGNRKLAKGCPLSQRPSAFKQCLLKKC

As a reminder, the IC50 is the point on the concentration scale where inhibition reaches its midpoint. Turning to `Cc1cc(Cl)ccc1C1CCN(C(=O)CC[C@H]2NC(=O)NC2=O)CC1` [Cpd 59, (R)-5-(3-(4-(4-chloro-2-methylphenyl)piperidin-1-yl)-3-oxopropyl) imidazolidine-2,4-dione], in assay [1], the IC50 was above 100 nM.
`C[C@H]1CN(C(=O)CC[C@@]2(C3CC3)NC(=O)NC2=O)CC[C@@H]1c1ccc(F)c(F)c1` [Cpd 77, (S)-5-cyclopropyl-5-(3-((3R,4S)-4-(3,4-difluorophenyl)-3-methylpiperidin-1-yl)-3-oxopropyl) imidazolidine-2,4-dione]: the IC50 in assay [1], in assay [2] and in assay [3] (5FAM-LAQAVRSSSRK-5TAMRA) was above 100 nM throughout.
Turning to `COc1cc(C2CCN(C(=O)CC[C@H]3NC(=O)NC3=O)CC2)cc(N(C)C)c1Cl` [Cpd 91], the 50% inhibitory concentration (IC50) in assay [1] lay within 25 to 50 nM.
Regarding `O=C1NC(=O)[C@@H](CCC(=O)N2CCC(c3ccc(F)c(F)c3)CC2)N1` [Cpd 53, (R)-5-(3-(4-(3,4-difluorophenyl)piperidin-1-yl)-3-oxopropyl) imidazolidine-2,4-dione], the IC50 in assay [1] and in assay [2] was above 100 nM in each case.
Regarding `COc1cc(C2CCN(C(=O)CC[C@H]3NC(=O)NC3=O)CC2)cc(Cl)c1Cl` [Cpd 69, (R)-5-(3-(4-(3,4-dichloro-5-methoxyphenyl)piperidin-1-yl)-3-oxopropyl) imidazolidine-2,4-dione], the IC50 lay in the range of 0.001 to 25 nM in assay [1] and 50 to 100 nM in assay [3] (5FAM-[…]-5TAMRA).
For `C[C@H]1CN(C(=O)CC[C@@]2(C3CC3)NC(=O)NC2=O)CC[C@H]1c1ccc(F)c(F)c1` [Cpd 78, (S)-5-cyclopropyl-5-(3-((3R,4R)-4-(3,4-difluorophenyl)-3-methylpiperidin-1-yl)-3-oxopropyl) imidazolidine-2,4-dione], the results for the IC50 in assay [1], in assay [2] and in assay [3] (5FAM-LAQAVRSSSRK-5TAMRA) were 25 to 50 nM, 25 to 50 nM and above 100 nM, respectively.
For the compound `Cc1cc(Cl)ccc1C1CCN(C(=O)CCC2(C)NC(=O)NC2=O)CC1` (centres unmarked) [Cpd 60, 5-(3-(4-(4-chloro-2-methylphenyl)piperidin-1-yl)-3-oxopropyl)-5-methyl-imidazolidine-2,4-dione], the half-inhibitory concentration (IC50) in assay [1] is 50 to 100 nM; in assay [2], above 100 nM.
With `COc1ccc(OC)c(C2CCN(C(=O)CC[C@H]3NC(=O)NC3=O)CC2)c1` [Cpd 35, (R)-5-(3-(4-(2,5-dimethoxy-phenyl)piperidin-1-yl)-3-oxopropyl) imidazolidine-2,4-dione], the IC50 in assay [1] and in assay [2] was above 100 nM throughout.
`C[C@]1(CCC(=O)N2CCC(c3ccc(Cl)c(C(F)(F)F)c3)CC2)NC(=O)NC1=O` [Cpd 94, (5R)-5-[3-[4-[4-chloro-3-(trifluoromethyl)phenyl]-1-piperidyl]-3-oxo-propyl]-5-methyl-imidazolidine-2,4-dione]: in assay [1], the IC50 is 25 to 50 nM.
On to `COc1cc(Cl)c(Cl)cc1C1CCN(C(=O)CCC2(c3cccc(C)n3)NC(=O)NC2=O)CC1` (centres unmarked) [Cpd 92, 5-[3-[4-(4,5-dichloro-2-methoxy-phenyl)-1-piperidyl]-3-oxo-propyl]-5-(6-methyl-2-pyridyl) imidazolidine-2,4-dione], for which, in assay [1], the IC50 lay within 0.001 to 25 nM.
On to `C[C@H]1CN(C(=O)CCC2(C3CC3)NC(=O)NC2=O)CC[C@H]1c1ccc(F)c(F)c1` (stereo partly drawn) [Cpd 76, 5-cyclopropyl-5-(3-((3R,4R)-4-(3,4-difluorophenyl)-3-methylpiperidin-1-yl)-3-oxopropyl) imidazolidine-2,4-dione], for which the 50% inhibitory concentration (IC50) in assay [1] is 50 to 100 nM; in assay [2], 50 to 100 nM; in assay [3] (5FAM-LAQAVRSSSRK-5TAMRA), above 100 nM.
Take `Cc1cc(C2CCN(C(=O)CC[C@@]3(C)NC(=O)NC3=O)CC2)ccc1Cl` [Cpd 95, (5R)-5-[3-[4-(4-chloro-3-methyl-phenyl)-1-piperidyl]-3-oxo-propyl]-5-methyl-imidazolidine-2,4-dione]: the concentration for half-maximal inhibition (IC50) in assay [1] is 0.001 to 25 nM.
Turning to `Cc1cc(Cl)c(F)cc1C1CCN(C(=O)CC[C@H]2NC(=O)NC2=O)CC1` [Cpd 63, (R)-5-(3-(4-(4-chloro-5-fluoro-2-methylphenyl)piperidin-1-yl)-3-oxopropyl) imidazolidine-2,4-dione], the 50% inhibitory concentration (IC50) in assay [1] was 50 to 100 nM; in assay [2] it was above 100 nM.
Turning to `CCOc1cc(C2CCN(C(=O)CC[C@H]3NC(=O)NC3=O)CC2)cc(OC)c1Cl` [Cpd 88, (5R)-5-[3-[4-(4-chloro-3-ethoxy-5-methoxy-phenyl)-1-piperidyl]-3-oxo-propyl] imidaz olidine-2,4-dione], the IC50 in assay [1] is 0.001 to 25 nM; in assay [2] it was above 100 nM; in assay [3] (5FAM-[…]-5TAMRA), 50 to 100 nM.
For `COc1cc(C2CCN(C(=O)CC[C@@]3(C)NC(=O)NC3=O)CC2)c(C)cc1F` [Cpd 83, (5R)-5-[3-[4-(4-fluoro-5-methoxy-2-methyl-phenyl)-1-piperidyl]-3-oxo-propyl]-5-methyl-imidazolidine-2,4-dione], the IC50 in assay [1] lay within 25 to 50 nM.
The same measure, in the same setting: under `COc1cc(Cl)c(Cl)cc1C1CCN(C(=O)CCC2(C)NC(=O)NC2=O)CC1` (centres unmarked) [Cpd 62, 5-(3-(4-(4,5-dichloro-2-methoxyphenyl)piperidin-1-yl)-3-oxopropyl)-5-methyl-imidazolidine-2,4-dione] stands 0.001 to 25 nM.
For the compound `CC1(CCC(=O)N2CCC(c3ccc(F)c(F)c3)CC2)NC(=O)NC1=O` (centres unmarked) [Cpd 56, 5-(3-(4-(3,4-difluorophenyl)piperidin-1-yl)-3-oxopropyl)-5-methyl-imidazolidine-2,4-dione], the IC50 in assay [1] and in assay [2] was above 100 nM throughout.
In the case of `COc1cc(C2CCN(C(=O)CC[C@H]3NC(=O)NC3=O)CC2)cc(OC)c1F` [Cpd 82, (5R)-5-[3-[4-(4-fluoro-3,5-dimethoxy-phenyl)-1-piperidyl]-3-oxo-propyl] imidazolidine-2,4-dione], the half-maximal inhibitory concentration (IC50) in assay [1] is 0.001 to 25 nM; in assay [3] (5FAM-[…]-5TAMRA) it was 50 to 100 nM.
In the case of `COc1c(Cl)cccc1C1CCN(C(=O)CC[C@@]2(C)NC(=O)NC2=O)CC1` [Cpd 86, (5R)-5-[3-[4-(3-chloro-2-methoxy-phenyl)-1-piperidyl]-3-oxo-propyl]-5-methyl-imidazolidine-2,4-dione], the concentration for half-maximal inhibition (IC50) in assay [1] and in assay [2] was above 100 nM throughout.
For `COc1cc(C2CCN(C(=O)CCC3(C)NC(=O)NC3=O)CC2)c(C)cc1Cl` (centres unmarked) [Cpd 37, 5-(3-(4-(4-chloro-5-methoxy-2-methylphenyl)piperidin-1-yl)-3-oxopropyl)-5-methyl-imidazolidine-2,4-dione], the IC50 in assay [1] is 0.001 to 25 nM.
Turning to `C[C@H]1CN(C(=O)CC[C@@]2(C)NC(=O)NC2=O)CC[C@H]1c1ccc(F)c(F)c1` [Cpd 99, (5R)-5-[3-[(3R,4R)-4-(3,4-difluorophenyl)-3-methyl-1-piperidyl]-3-oxo-propyl]-5-methyl-imidazolidine-2,4-dione], the IC50 in assay [1] lay in the range of 25 to 50 nM; in assay [2], 50 to 100 nM.
Regarding `COc1ccc(OC)c(C2CCN(C(=O)CCC3(C)NC(=O)NC3=O)CC2)c1` (centres unmarked) [Cpd 39, 5-(3-(4-(2,5-dimethoxy-phenyl)piperidin-1-yl)-3-oxopropyl)-5-methyl-imidazolidine-2,4-dione], the concentration for half-maximal inhibition (IC50) in assay [1] and in assay [2] was above 100 nM throughout.
As to `COc1ccc(C2CCN(C(=O)CCC3(C)NC(=O)NC3=O)CC2)cc1` (centres unmarked) [Cpd 31, 5-(3-(4-(4-methoxyphenyl)piperidin-1-yl)-3-oxopropyl)-5-methyl-imidazolidine-2,4-dione], the half-inhibitory concentration (IC50) in assay [1] and in assay [2] was above 100 nM each time.
On to `CC1(CCC(=O)N2CCC(c3ccc(-c4ccccc4F)s3)CC2)NC(=O)NC1=O` (centres unmarked) [Cpd 112, 5-[3-[4-[5-(2-fluorophenyl)-2-thienyl]-1-piperidyl]-3-oxo-propyl]-5-methyl-imidazolidine-2,4-dione], for which the half-maximal inhibitory concentration (IC50) is 50 to 100 nM in assay [1] and above 100 nM in assay [2].
As for `COc1cc(C2CCN(C(=O)CC[C@@]3(C)NC(=O)NC3=O)CC2)cc(Cl)c1Cl` [Cpd 68, (R)-5-(3-(4-(3,4-dichloro-5-methoxyphenyl)piperidin-1-yl)-3-oxopropyl)-5-methylimidazolidine-2,4-dione], the half-maximal inhibitory concentration (IC50) in assay [1] fell in the range of 0.001 to 25 nM; in assay [3] (5FAM-[…]-5TAMRA) it was 50 to 100 nM.
Take `COc1ccc(Cl)cc1C1CCN(C(=O)CC[C@H]2NC(=O)NC2=O)CC1` [Cpd 40, (R)-5-(3-(4-(5-chloro-2-methoxy-phenyl)piperidin-1-yl)-3-oxopropyl) imidazolidine-2,4-dione]: the IC50 in assay [1] and in assay [2] was above 100 nM in each case.
`COc1ccc(C2CCN(C(=O)CC[C@H]3NC(=O)NC3=O)CC2)cc1` [Cpd 30, (R)-5-(3-(4-(4-methoxyphenyl)piperidin-1-yl)-3-oxopropyl) imidazolidine-2,4-dione]: the IC50 in assay [1] and in assay [2] was above 100 nM in each case.
